This is an account of results in patent US20070287676A1, “Diagnosis and treatment of endometriosis” (priority 2006, published 2007).

In one data set the test system is endometriotic cells. Kind of data set: Suppression of growth and inflammation of endometriotic cells. As to conditions: used alone. It is filed as cell-based.
For data set [1], the system named is AR. Kind of data set: AR mRNA expression by RT-PCR in treated YHES cells. It is filed as cell-based, human. As to conditions: for AR mRNA expression level vs untreated control: 8 h, 18 h and 36 h, TSA 10 μM, CDB 100 μM, NAC 10 mM, semi-quantitative RT-PCR; for AR expression: 36 h of treatment, real-time RT-PCR. The method, then:
(§1) The YHES cells were harvested by trypsinization and seeded in 12-well at 5×10^4 cells/well plates and were pretreated with E2 and P as described above. […] Total RNA was isolated from treated cells using TRIzol reagent (Invitrogen, Carlsbad, Calif.) according to the manufacturer's instructions. The integrity of total RNA was inspected on an agarose gel. One microgram of total RNA from each sample was treated with DNase I to remove potential DNA contamination and then reverse-transcribed using Superscript II Reverse Transcriptase (Invitrogen). First-strand cDNA obtained from RNA samples was stored at −80° C. until use. To measure the mRNA expression levels of AR, PR-A, PR-B, Fas and FasL in each cell culture, semi-quantitative PCR analysis was performed.
(§2) Quantitative real-time RT-PCR was carried out on an ABI 7900 DNA sequencer (Applied Biosystems), and monitored by SYBR Green I (Qiagen, Valencia, Calif.). The PCR products of the expected size were visualized on a 0.8% agarose gel. The relative mRNA level of each gene was calculated using relative quantitation of gene expression (Applied Biosystems, Foster City, Calif.) with 18s as an endogenous control. The reproducibility of the quantitative measurements was evaluated by two independent cDNA syntheses. The means and standard deviations of the replicated measurements were calculated and presented as mean ±s.d.
(In general: In qPCR the cycle at which signal appears reflects the starting amount.)

A further data set relates to PR-A. Description: PR-A mRNA expression by RT-PCR in treated YHES cells. It is filed as cell-based, human. As to conditions: 8 h, 18 h and 36 h; TSA 10 μM, CDB 100 μM, NAC 10 mM; semi-quantitative RT-PCR. As for the experimental part:
as §1, §2

Another data set has as its system Fas. Description: Fas mRNA expression by RT-PCR in treated YHES cells. It is filed as cell-based, human. As for the experimental part:
as §1, §2

Data set [2] deals with YHES cells pretreated with H2O2. Description: H2O2-induced cell proliferation, MTT assay. It is filed as cell-based, human. As to conditions: H2O2 1 μM, 48 hours; for suppression of H2O2-induced cell proliferation: vs H2O2 only. The method, then:
MTT assay was performed after 48 hours of treatment.
(§3) The YHES cells were harvested by trypsinization and seeded in 96-well plate at ˜1×10^4 cells/well. The cells were allowed to attach to the plate for overnight at 37° C. with 5% C02 in a humidified incubator. Then they were pretreated with physiological concentration of E2 (10^-9M) and P (10^-7M) for 24 hr to maintain hormonal responsiveness. […] Cell growth was valuated by the MTT assay (ATCC, Manassas, Va.). MTT assay was performing according to the manufacturer's instructions, and in triplicate to generate mean values. Cell numbers in the untreated control were arbitrarily assigned as 1. The relative cell growth was expressed as fold increase/decrease relative to the control. Data were presented as mean values from three independently repeated experiments.
The addition of H202 was meant to mimic the oxidative stress as reported in endometriosis. […] RU486 suppressed cell proliferation by 75% at the concentration of 100 μM.
(Formazan colour is commonly taken as a measure of viable cells.)

In data set [3] the test system is YHES cells (immortalized human endometrial stromal cell line). Description: MTT cell proliferation assay in YHES cells. It counts as cell-based. As to conditions: 48 hr; for increased cell proliferation: E2 and P pretreated, vs control. As for the experimental part:
An immortalized human endometrial stromal cell line was maintained following Krikun et al. (Krikun et al. 2004 Endocrinology 145:2291-6). Cells were maintained in phenol red-free DMEM/F12 (Gibco, CA) medium supplemented with 10% charcoal-dextran stripped FBS (Biomeda, CA), 1 μl/ml sodium pyruvate (Gibco, CA) and 1× Pen/Strep/Fungizone (Gibco, CA), at 37° C. with 5% C02 in a humidified incubator.
as §3

Data set [4] deals with AR. Description: Western blot of AR protein in treated YHES cells. As to conditions: 16 hrs; TSA 10 μM, CDB 100 μM, NAC 10 mM. It is filed as cell-based, human. The method, then:
Western blot analysis was performed to measure protein expression of β-actin, ERα, ERβ, and AR. […] Whole cell lysate was prepared as previously described (44) by using RIPA lysis buffer containing 50 mM Tris, pH 7.4, 150 mM NaCl, 12 mM EDTA, 1% Triton X-100, 0.5% sodium deoxycholate, and 0.1% SDS. To avoid degradation, a protease inhibitor cocktail III (Sigma) was added at 2%. Total protein was quantified using a BCA protein assay kit (Pierce, Rockford, Ill.). Ten microgram of total protein was separated by electrophoresis on 10% SDS-polyacrylamide gels. The protein was then transferred onto PVDF membranes (Milipore, Bedford, Mass.). […] The blot was then subsequently incubated with primary antibody rabbit anti-human ERα (Santa Cruz Biotechnology, CA), rabbit anti-human ERβ (Zymed Laboratories, South San Francisco, Calif.), rabbit anti-β-actin (Cell Signaling Technology, Beverly, Mass.), or rabbit ant-human AR (Santa Cruz Biotechnology, CA), respectively, in blocking solution (5% nonfat dry milk plus PBS) for 2 hr at room temperature. After washing with PBS plus 0.5% Tween-20, the membranes were then incubated with the secondary antibody goat anti-rabbit IgG (H+L)-HRP (Santa Cruz Biotechnology, CA) at 1:8000 dilution in blocking solution for 2 h at room temperature. […]
A general note: A western blot detects proteins with antibodies after separation by electrophoresis.

Another data set has as its system PR-B. Kind of data set: PR-B mRNA expression by RT-PCR in treated YHES cells. As to conditions: 8 h, 18 h and 36 h; TSA 10 μM, CDB 100 μM, NAC 10 mM; semi-quantitative RT-PCR. It counts as cell-based, human. As for the experimental part:
as §1, §2

For the next data set, the system named is YHES cells. Kind of data set: Long-term culture and morphology after treatment. It counts as cell-based, human. As to conditions: for recovery judged by morphology: four weeks after the treatment, TSA and RU486 at 100 μM. From the text:
The micrographs of the first two rows were taken using 20× magnification, and those of the third row were taken using 10× magnification. The micrographs of the first row and the first two micrographs of second row were obtained using differential inference contrast (DIC) optic; the others were obtained without the DIC optic. […]

Data set [5] is described as follows: Pilot study: safety, tolerability and laboratory monitoring. It counts as in vivo, human. From the text:
The diagnosis of adenomyosis of all three patients was made based on symptomology, pelvic examination and vaginal ultrasound evaluation by experienced physicians (FIG. 28). […] The treatment was terminated at the end of the 3rd month after taking the drug and the patients were followed up for an additional 3 months. During treatment, clinical signs, symptoms and ultrasound evaluation were closely monitored. Blood counts and biochemistries including liver function tests, ammonium and coagulation studies were performed monthly.

Another data set concerns endometrial cells. As to conditions: immortalized human endometrial stromal cells; cited from earlier work.
Data set [6] relates to endometrial stromal cells. As to conditions: in vitro; cited from earlier work.
Data set [7] deals with patients diagnosed with adenomyosis. Kind of data set: Pilot study of off-label valproic acid in adenomyosis. As to conditions: for relief of dysmenorrhea reported by patients: 3 patients. It is filed as in vivo, human. From the text:
After informed consent, we recruited three patients diagnosed with adenomyosis (FIG. 28). All three patients had moderate to severe dysmenorrehea. They were all married and parous, and had normal menstrual cycles (28-30 days). […] During the recruitment, all patients were offered the option of hysterectomy or the chance to try an experimental drug. They all chose to try the drug and were all given the full explanation of the experimental nature of this study and possible risks associated with it. Approval for this pilot study was obtained from the local ethics committee at Shanghai OB/GYN Hospital, Fudan University. The diagnosis of adenomyosis of all three patients was made based on symptomology, pelvic examination and vaginal ultrasound evaluation by experienced physicians (FIG. 28). […] The treatment was terminated at the end of the 3rd month after taking the drug and the patients were followed up for an additional 3 months. During treatment, clinical signs, symptoms and ultrasound evaluation were closely monitored. Blood counts and biochemistries including liver function tests, ammonium and coagulation studies were performed monthly.

The mark [8] stands for this setting: 18 and 36 h after the treatment.

Consider `Nc1ncn([C@@H]2O[C@H](CO)[C@@H](O)[C@H]2O)c(=O)n1` [5-azacytidine], for which the “effect of use alone on growth and inflammation” value in the data set with endometriotic cells was “some effect in suppression of growth (but not inflammation)”.
In the case of `CC(=O)O[C@]1(C(C)=O)CC[C@H]2[C@@H]3CCC4=CC(=O)CCC4=C3[C@@H](c3ccc(N(C)C)cc3)C[C@@]21C` [CDB, CDB-2914], the “AR mRNA expression level vs untreated control” value in the data set with AR [1] was “increased”. The AR expression entry in the data set on AR [1] is “maintained the increased expression”. Moreover, the “PR-A mRNA expression level vs untreated control” value in the data set with PR-A is “increased”. Further, the figures for the Fas expression entry in the data set on Fas (setting [8]) and in the data set with Fas (8 h after the treatment) were “decreased” and “increased”, respectively. Moreover, in data set [2] (100 μM), the “suppression of H2O2-induced cell proliferation” value came to 49%. Also, the “effect on cell proliferation” value in [3] (10 μM or lower (10, 1, 0.1 μM)) is recorded as “statistically non-significant inhibition of cell proliferation”; in data set [3] (100 μM (highest concentration)) it was “significant suppression of cell proliferation”. Besides, in the data set with AR [4], the “AR protein level vs control group” value is “increased”. Moreover, the “PR-B mRNA expression level vs untreated control” value in the data set with PR-B is “increased”. Further, the cell morphology result with YHES cells (24 h after the treatment) is given as “signs of apparent apoptosis”. In addition, in the data set with YHES cells, the “recovery judged by morphology” value is “apparently recovered”.
Regarding `OO` [H2O2], the increased cell proliferation was found to be 18% in [3] (1 μM) and 22% in [3] (10 μM). For the same compound, in data set [3] (100 μM (highest concentration)), the “effect on cell proliferation” value is “induced inhibition of proliferation”.
As for `C[C@]12CC[C@@H]3c4ccc(O)cc4C[C@@H](CCCCCCCCC[S+]([O-])CCCC(F)(F)C(F)(F)F)[C@H]3[C@@H]1CC[C@@H]2O` (stereo partly shown) [ICI, ICI 182780], in data set [2] (100 μM), the “effect on H2O2-induced cell proliferation” value is “did not significantly inhibit”. In addition, the “increase in proliferation as compared with the control group” value in [3] (0.1 μM) was “about 40%”. Moreover, in data set [3] (across 100, 10, 1, 0.1 μM), the “effect on cell proliferation” value is “no statistically significant reduction in proliferation”.
As to `CC(=O)N[C@@H](CS)C(=O)O` [NAC, N-acetylcysteine], in the data set with AR [1], the “AR mRNA expression level vs untreated control” value is reported as “increased”. In the data set on AR [1], the AR expression result is reported as “maintained the increased expression”. Also, the “PR-A mRNA expression level vs untreated control” value in the data set with PR-A is listed as “increased”. Besides, the results for the Fas expression result in the data set with Fas (setting [8]) and in the data set with Fas (8 h after the treatment) were “decreased” and “increased”, respectively. The “suppression of H2O2-induced cell proliferation” value in data set [2] (10 mM) is 63%. Also, the suppression of proliferation was determined as 35% in data set [3] (10 mM) and 50% in data set [3] (30 mM). In the data set on PR-B, the “PR-B mRNA expression level vs untreated control” value is on record as “increased”. The “recovery judged by morphology” value in the data set with YHES cells was “apparently recovered”.
As for `CC#C[C@]1(O)CC[C@H]2[C@@H]3CCC4=CC(=O)CCC4=C3[C@@H](c3ccc(N(C)C)cc3)C[C@@]21C` [RU486], the “suppression of H2O2-induced cell proliferation” value in [2] (100 μM) came out at 75%. Further, in data set [3] (100 μM), the “reduction of cell proliferation as compared with controls” value is recorded as greater than 95%.
For `CCCC(CCC)C(=O)O` [VPA, valproic acid], the tolerability entry in data set [5] (3-month oral VPA) is reported as “well tolerated”. The “serum level of testosterone vs normal range” value in [5] (end of three month after taking VPA) is on record as “within the normal range”. Further, the “liver function and other biochemistries” value in data set [5] (monthly during treatment, all cases) is “remained normal”. Also, the “effect on cell cycle” value in the data set with endometrial cells is recorded as “induce cell cycle arrest”. Further, the effect on proliferation result in [6] is “suppressing proliferation of endometrial and endometriotic cells in vitro”. Moreover, the “average reduction of uterus size” value in [7] (end of the 3-month treatment, three patients) worked out at 33%. The “uterus size by physical examination” value in data set [7] (end of the 3rd month) is “slight reduction in uterus size in one patient but no change in the other two”. Moreover, the “pelvic and ultrasound examinations” value in [7] (one month after taking VPA) is given as “no change in uterus size or other conditions”. Also, the “relief of dysmenorrhea reported by patients” value in [7] (three months after taking the drug (end of treatment)) was “all three patients reported complete relief of pain without any need for pain-killers”; in data set [7] (three months after taking the drug (end of treatment), listed as valproic acid) it was “all three recruited patients reported complete disappearance of dysmenorrhea”; in [7] (two months after taking VPA, oral 500 mg b.i.d. then t.i.d.) it was 2 patients reported complete relief of dysmenorrehea with no need for pain-killers, and 1 reported much relieved pain. Besides, the “dysmenorrhea reported by patients” value in [7] (three months after the discontinuation of the treatment) was 2 patients reported disappearance of dysmenorrehea, but 1 reported the return of the same symptom.
